Laboratory results published in ChEMBL document CHEMBL4680289, “10-(4-Phenylpiperazine-1-carbonyl)acridin-9(10H)-ones and related compounds: Synthesis, antiproliferative activity and inhibition of tubulin polymerization” (Bioorg Med Chem Lett, 2021).
Activity calls are given as the source filed them. The calls are words filed in the database; no cut-off is given here.

Experiments:
[1] = system: K562; experiment: Antiproliferative activity against human K562 cells assessed as cell growth inhibition measured after 48 hrs by MTT assay; format: functional, cell-based; details: K562, 48 h
[2] = Inhibition of porcine brain tubulin polymerization assessed as reduction in tubulin assembly at 37 degreeC measured after 40 mins in presence of GTP by turbidimetric analysis; design: species or system Sus scrofa
[3] = molecular target: T1, Tubulin beta (Homo sapiens) (UniProt P68371+Q9H4B7+Q13509+P04350+Q3ZCM7+P07437+Q13885+Q9BVA1+Q9BUF5+A6NNZ2); experiment: Inhibition of N,N'-Ethylenebis(iodoacetamide) binding to beta-tubulin colchicine binding site in human K562 cells assessed as reduction in EBI/beta-tubulin adduct formation preincubated for 2.5 hrs followed by EBI addition and measured after 1.5 hrs by Western blot analysis relative to control; format: cell-based; details: time 4.0 hrs, concentration not given here
[4] = system: K562; experiment: Cell cycle arrest in human K562 cells assessed as increase in cell accumulation at G2/M phase measured after 18 hrs by propidium iodide/RNase FACSCalibur staining based flow cytometry; format: functional; details: dose 0.003-1 µmol/L
[5] = system: K562; experiment: Induction of apoptosis in human K562 cells at 3 uM measured after 48 hrs by Annexin V-FITC/7-AAD staining based flow cytometric analysis; format: functional, cell-based
[6] = molecular target: T1, Tubulin beta (Homo sapiens); experiment: Inhibition of N,N'-Ethylenebis(iodoacetamide) binding to beta-tubulin colchicine binding site in human K562 cells assessed as reduction in EBI/beta-tubulin adduct formation at 1 to 10 uM preincubated for 2.5 hrs followed by EBI addition and measured after 1.5 hrs by Western blot analysis; format: cell-based; details: dose 1-10 µM, time 4.0 hrs
[7] = system: K562; experiment: Cell cycle arrest in human K562 cells assessed as increase in cell accumulation at G2/M phase at < 30 nM measured after 18 hrs by propidium iodide/RNase FACSCalibur staining based flow cytometry; format: functional; details: dose nM <30, time 18.0 hrs
[8] = system: SK-N-AS; experiment: Antiproliferative activity against human SK-N-AS cells assessed as cell growth inhibition measured after 72 hrs by sulforhodamine B assay; format: functional
[9] = Cytotoxicity against human IMR-90 cells assessed as cell growth inhibition measured after 72 hrs by sulforhodamine B assay; format: cell-based
[10] = system: BXPC-3; experiment: Antiproliferative activity against human BXPC-3 cells assessed as cell growth inhibition measured after 72 hrs by sulforhodamine B assay; format: functional
[11] = system: MG-63; experiment: Antiproliferative activity against human MG-63 cells assessed as cell growth inhibition measured after 72 hrs by sulforhodamine B assay; format: functional
[12] = system: HT-1080; experiment: Antiproliferative activity against human HT-1080 cells assessed as cell growth inhibition measured after 72 hrs by sulforhodamine B assay; format: functional
[13] = system: 5637; experiment: Antiproliferative activity against human 5637 cells assessed as cell growth inhibition measured after 72 hrs by sulforhodamine B assay; format: functional
[14] = system: HT-29; experiment: Antiproliferative activity against human HT-29 cells assessed as cell growth inhibition measured after 72 hrs by sulforhodamine B assay; format: functional
[15] = system: PANC-1; experiment: Antiproliferative activity against human PANC-1 cells assessed as cell growth inhibition measured after 72 hrs by sulforhodamine B assay; format: functional
[16] = Antiproliferative activity against human RDES cells assessed as cell growth inhibition measured after 72 hrs by sulforhodamine B assay; format: functional; details: RD-ES
[17] = system: Ramos; experiment: Antiproliferative activity against human Ramos cells assessed as cell growth inhibition measured after 72 hrs by sulforhodamine B assay; format: functional
[18] = system: DU-145; experiment: Antiproliferative activity against human DU-145 cells assessed as cell growth inhibition measured after 72 hrs by sulforhodamine B assay; format: functional
[19] = system: L-363; experiment: Antiproliferative activity against human L-363 cells assessed as cell growth inhibition measured after 72 hrs by sulforhodamine B assay; format: functional
[20] = system: MV4-11; experiment: Antiproliferative activity against human MV4-11 cells assessed as cell growth inhibition measured after 72 hrs by sulforhodamine B assay; format: functional
[21] = system: NCI-H460; experiment: Antiproliferative activity against human NCI-H460 cells assessed as cell growth inhibition measured after 72 hrs by sulforhodamine B assay; format: functional
[22] = system: SNB-75; experiment: Antiproliferative activity against human SNB-75 cells assessed as cell growth inhibition measured after 72 hrs by sulforhodamine B assay; format: functional
[23] = system: Ca-Ski; experiment: Antiproliferative activity against human Ca-Ski cells assessed as cell growth inhibition measured after 72 hrs by sulforhodamine B assay; format: functional
[24] = Cytotoxicity against human PBMC cells assessed as cell growth inhibition measured after 72 hrs by sulforhodamine B assay; format: cell-based
[25] = system: K562; experiment: Induction of apoptosis in human K562 cells at 30 nM measured after 48 hrs by Annexin V-FITC/7-AAD staining based flow cytometric analysis; format: functional, cell-based

SMILES | IC50 [1] | IC50 [2] | also measured
COc1cccc(N2CCN(C(=O)n3c4ccccc4c(=O)c4cc(C#N)ccc43)CC2)c1 | 0.19 µM |  | 
COc1ccc(OC)c(N2CCN(C(=O)n3c4ccccc4c(=O)c4ccccc43)CC2)c1 | 0.06 µM | 0.44 µM | 
O=C(N1CCN(c2ccccc2Cl)CC1)n1c2ccccc2c(=O)c2ccccc21 | 4.8 µM | 7.1 µM | 
O=C(N1CCN(c2cccc(F)c2)CC1)n1c2ccccc2c(=O)c2ccccc21 | 0.089 µM | 0.71 µM | 
O=C(N1CCN(c2ccc([N+](=O)[O-])cc2)CC1)n1c2ccccc2c(=O)c2ccccc21 | > 10 µM | > 10 µM | 
O=C(N1CCN(c2cccc(Cl)c2)CC1)n1c2ccccc2c(=O)c2ccccc21 | 0.038 µM | 0.6 µM | 
COc1ccccc1N1CCN(C(=O)n2c3ccccc3c(=O)c3ccccc32)CC1 | 0.055 µM | 0.53 µM | 
COc1ccccc1C(=O)n1c2ccccc2c(=O)c2ccccc21 | 3.9 µM | 5.5 µM | 
O=C(N1CCN(c2ccc(Cl)cc2)CC1)n1c2ccccc2c(=O)c2ccccc21 | 6.1 µM | > 10 µM | 
COc1cccc(N2CCN(C(=O)n3c4ccccc4c(=O)c4cc(OC)ccc43)CC2)c1 | 0.33 µM | 0.82 µM | 
COC(=O)Nc1nc2cc(C(=O)c3cccs3)ccc2[nH]1 [NOCODAZOLE] | 0.22 µM | 0.76 µM | 
O=C(c1ccccc1)n1c2ccccc2c(=O)c2ccccc21 | > 10 µM | > 10 µM | 
COc1cccc(N2CCN(C(=O)n3c4ccccc4c(=O)c4cnccc43)CC2)c1 | 0.23 µM | 0.72 µM | 
COc1ccc(C(=O)n2c3ccccc3c(=O)c3ccccc32)cc1O | 1.3 µM | 0.68 µM | 
COc1ccc(C(=O)n2c3ccccc3c(=O)c3cc(C#N)ccc32)cc1 | 1.3 µM | 1.7 µM | 
O=C(N1CCN(c2cccc([N+](=O)[O-])c2)CC1)n1c2ccccc2c(=O)c2ccccc21 | 0.2 µM | 0.56 µM | 
COc1ccc(C(=O)n2c3ccccc3c(=O)c3ccccc32)cc1 | 1.3 µM | 1.6 µM | inhibition [3]: 100%; Activity [4]: Dose-dependent effect; Activity [5]: Active
COc1cccc(N2CCN(C(=O)n3c4ccccc4c(=O)c4cccnc43)CC2)c1 | 0.032 µM | 0.45 µM | 
COc1ccccc1N1CCN(C(=O)n2c3ccccc3c(=O)c3cc([N+](=O)[O-])ccc32)CC1 | > 10 µM | > 10 µM | 
COc1cc(N2CCN(C(=O)n3c4ccccc4c(=O)c4ccccc43)CC2)cc(OC)c1OC | > 10 µM | > 10 µM | 
COc1cccc(C(=O)n2c3ccccc3c(=O)c3ccccc32)c1 | > 10 µM | > 10 µM | 
COc1cccc(N2CCN(C(=O)n3c4ccccc4c(=O)c4cc([N+](=O)[O-])ccc43)CC2)c1 | > 10 µM | 4.2 µM | 

SMILES | IC50 [1] | IC50 [2] | also measured
COc1ccccc1N1CCN(C(=O)n2c3ccccc3c(=O)c3cccnc32)CC1 | 0.19 µM | 1.34 µM | 
COc1ccc(C(=O)n2c3ccccc3c(=O)c3ccccc32)cc1OC | > 10 µM | > 10 µM | 
N#Cc1cccc(N2CCN(C(=O)n3c4ccccc4c(=O)c4ccccc43)CC2)c1 | 0.045 µM | 0.52 µM | 
Nc1cccc(N2CCN(C(=O)n3c4ccccc4c(=O)c4ccccc43)CC2)c1 | 0.9 µM | 1.3 µM | 
O=C(N1CCN(c2ccccc2)CC1)n1c2ccccc2c(=O)c2ccccc21 | 0.39 µM | 0.9 µM | 
COc1ccc2c(c1)c(=O)c1ccccc1n2C(=O)N1CCN(c2ccccc2OC)CC1 | 1.1 µM | 3.5 µM | 
COc1ccc(C(=O)n2c3ccccc3c(=O)c3cc(OC)ccc32)cc1 | 3.9 µM | 1.4 µM | 
O=C(N1CCN(c2cccnc2)CC1)n1c2ccccc2c(=O)c2ccccc21 | 0.62 µM | 2.9 µM | 
Nc1ccc(N2CCN(C(=O)n3c4ccccc4c(=O)c4ccccc43)CC2)cc1 | > 10 µM | > 10 µM | 
COc1ccc2c(c1)c(=O)c1cc(C#N)ccc1n2C(=O)N1CCN(c2ccccc2OC)CC1 | > 10 µM | > 10 µM | 
COc1ccc(N2CCN(C(=O)n3c4ccccc4c(=O)c4ccccc43)CC2)cc1 | > 10 µM | > 10 µM | 
COc1ccccc1N1CCN(C(=O)n2c3ccccc3c(=O)c3cc(C#N)ccc32)CC1 | 0.83 µM | 3.4 µM | 
COc1ccccc1N1CCN(C(=O)n2c3ccccc3c(=O)c3cc(N)ccc32)CC1 | 1.3 µM | 3.1 µM | 
COc1cccc(N2CCN(C(=O)n3c4ccccc4c(=O)c4ccccc43)CC2)c1 | 0.026 µM | 0.33 µM | inhibition [6]: Active; Activity [7]: Active; Activity [4]: Dose-dependent effect; GI50 [8]: 0.0013 µM; GI50 at 72 h [9]: 0.0014 µM; GI50 [10]: 0.0019 µM; GI50 [11]: 0.002 µM; GI50 [12]: 0.0021 µM; GI50 [13]: 0.0021 µM; GI50 [14]: 0.0021 µM; GI50 [15]: 0.0021 µM; GI50 [16]: 0.0298 µM; GI50 [17]: 0.018 µM; GI50 [18]: 0.0179 µM; GI50 [19]: 0.0148 µM; GI50 [20]: 0.0135 µM; GI50 [21]: 0.0132 µM; GI50 [22]: 0.0124 µM; GI50 [23]: 0.0123 µM; GI50 at 72 h [24]: > 10 µM
COc1ccc(N2CCN(C(=O)n3c4ccccc4c(=O)c4ccccc43)CC2)c(OC)c1 | 3 µM | 4.7 µM | 
COc1cccc(N2CCN(C(=O)n3c4ccc(C#N)cc4c(=O)c4cc(OC)ccc43)CC2)c1 | > 10 µM | > 10 µM | 
COc1ccccc1N1CCN(C(=O)n2c3ccccc3c(=O)c3cnccc32)CC1 | 0.67 µM | 3.9 µM | 
COc1cccc(N2CCN(C(=O)n3c4ccccc4c(=O)c4cc(N)ccc43)CC2)c1 | 0.44 µM | 1.25 µM | 
COc1ccc(C(=O)n2c3ccccc3c(=O)c3ccccc32)cc1OCc1ccccc1 | > 10 µM | > 10 µM | 
COc1cc2c(c(OC)c1OC)-c1ccc(OC)c(=O)cc1[C@@H](NC(C)=O)CC2 [COLCHICINE] | 0.013 µM |  | Activity [25]: Active
O=C(N1CCN(c2cccc(Br)c2)CC1)n1c2ccccc2c(=O)c2ccccc21 | 0.039 µM | 0.69 µM | 
CC[C@]1(O)C[C@H]2CN(CCc3c([nH]c4ccccc34)[C@@](C(=O)OC)(c3cc4c(cc3OC)N(C)[C@H]3[C@@](O)(C(=O)OC)[C@H](OC(C)=O)[C@]5(CC)C=CCN6CC[C@]43[C@@H]65)C2)C1 | 0.012 µM | 0.13 µM | 
